Source: ChEMBL document CHEMBL4613308, “Screen of Unfocused Libraries Identified Compounds with Direct or Synergistic Antibacterial Activity” (ACS Med Chem Lett, 2020)
≈ marks a conversion by molar mass, not a printed value.

Key:
Escherichia coli [1] = test: Antibacterial activity against Escherichia coli CCUG assessed as bacterial growth inhibition by agar diffusion assay; format: functional
Klebsiella pneumoniae [2] = test: Antibacterial activity against Klebsiella pneumoniae ATCC 13833 assessed as bacterial growth inhibition by agar diffusion assay; format: functional
Pseudomonas aeruginosa [3] = test: Antibacterial activity against Pseudomonas aeruginosa ATCC 27853 assessed as bacterial growth inhibition by agar diffusion assay; format: functional
Acinetobacter baumannii [4] = test: Antibacterial activity against Acinetobacter baumannii ATCC 17978 assessed as bacterial growth inhibition by agar diffusion assay; format: functional
Acinetobacter baumannii [5] = test: Synergistic antibacterial activity against Acinetobacter baumannii ATCC 17978 in presence of 0.5 times MIC of colistin by microdilution broth method; format: functional
Escherichia coli [6] = test: Synergistic antibacterial activity against Escherichia coli CCUG in presence of 0.5 times MIC of colistin by microdilution broth method; format: functional
Klebsiella pneumoniae [7] = test: Synergistic antibacterial activity against Klebsiella pneumoniae ATCC 13833 in presence of 0.5 times MIC of colistin by microdilution broth method; format: functional
Pseudomonas aeruginosa [8] = test: Synergistic antibacterial activity against Pseudomonas aeruginosa ATCC 27853 in presence of 0.5 times MIC of colistin by microdilution broth method; format: functional
Acinetobacter baumannii [9] = test: Synergistic antibacterial activity against Acinetobacter baumannii ATCC 17978 assessed as fractional inhibitory concentration index in presence of colistin by Checkerboard assay; format: functional
Pseudomonas aeruginosa [10] = test: Synergistic antibacterial activity against Pseudomonas aeruginosa ATCC 27853 assessed as fractional inhibitory concentration index in presence of colistin by Checkerboard assay; format: functional
Acinetobacter baumannii [11] = test: Potentiation of colistin-induced antibacterial activity against Acinetobacter baumannii ATCC 17978 assessed as fold reduction in colistin MIC by microdilution broth method relative to colistin MIC; format: functional
Escherichia coli [12] = test: Potentiation of colistin-induced antibacterial activity against Escherichia coli CCUG assessed as fold reduction in colistin MIC in by microdilution broth method relative to colistin MIC; format: functional
Klebsiella pneumoniae [13] = test: Potentiation of colistin-induced antibacterial activity against Klebsiella pneumoniae ATCC 13833 assessed as fold reduction in colistin MIC by microdilution broth method relative to colistin MIC; format: functional
Pseudomonas aeruginosa [14] = test: Potentiation of colistin-induced antibacterial activity against Pseudomonas aeruginosa ATCC 27853 assessed as fold reduction in colistin MIC by microdilution broth method relative to colistin MIC; format: functional
Klebsiella pneumoniae [15] = test: Synergistic antibacterial activity against colistin-resistant Klebsiella pneumoniae SI-004Bo clinical isolate in presence of 2 ug/ml colistin by microdilution broth method (reference value: 64 ug/ml); format: functional
Klebsiella pneumoniae [16] = test: Synergistic antibacterial activity against colistin-resistant Klebsiella pneumoniae SI-081R clinical isolate in presence of 2 ug/ml colistin by microdilution broth method (reference value: 256 ug/ml); format: functional
Acinetobacter baumannii [17] = test: Synergistic antibacterial activity against multidrug-resistant Acinetobacter baumannii N50 in presence of 2 ug/ml colistin by microdilution broth method; format: functional
HeLa = test: Cytotoxicity against human HeLa cells assessed as reduction in cell viability assay by CellTox-Green assay; format: cell-based
Acinetobacter baumannii [18] = test: Synergistic antibacterial activity against multidrug-resistant Acinetobacter baumannii N50 assessed as fractional inhibitory concentration index in presence of colistin by checkerboard assay; format: functional

CCCCCc1cc(O)cc(OCCCCCCCCCCC(=O)NCCO)c1
MIC (Escherichia coli [1]): > 512 µg/mL
MIC (Klebsiella pneumoniae [2]): > 512 µg/mL
MIC (Pseudomonas aeruginosa [3]): > 512 µg/mL
MIC (Acinetobacter baumannii [4]): > 512 µg/mL
MIC (Acinetobacter baumannii [5]): 2 µg/mL
MIC (Escherichia coli [6]): 8 µg/mL
MIC (Klebsiella pneumoniae [7]): 4 µg/mL
MIC (Pseudomonas aeruginosa [8]): 2 µg/mL
fractional inhibitory concentration index (FICI) (Acinetobacter baumannii [9]): 0.29
fractional inhibitory concentration index (FICI) (Pseudomonas aeruginosa [10]): 0.41
log2FC (Acinetobacter baumannii [11]): 8
log2FC (Escherichia coli [12]): 6
log2FC (Klebsiella pneumoniae [13]): 7
log2FC (Pseudomonas aeruginosa [14]): 8
MIC (Klebsiella pneumoniae [15]): > 64 µg/mL
MIC (Klebsiella pneumoniae [16]): > 64 µg/mL
MIC (Acinetobacter baumannii [17]): 2 µg/mL
IC50 (HeLa): 25 µg/mL (≈ 61.3 µM)
fractional inhibitory concentration index (FICI) (Acinetobacter baumannii [18]): 0.062
